Data published in the supplement of paper PMC10307832.

What was measured:
Experiment in all cases: relative viability (nuclei count vs DMSO), 5 days (fraction); higher = more cells survive
[1] = compound: CNC(=O)c1cc(Oc2ccc(NC(=O)Nc3ccc(Cl)c(C(F)(F)F)c3)cc2)ccn1 [Sorafenib] + CC(C)C[C@H](NC(=O)[C@H](Cc1ccccc1)NC(=O)c1cnccn1)B(O)O [Bortezomib] (partner 0.002 µM)
Procedure, shortened: (§1)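 A single step with final 0.05% Triton X-100, 1% formaldehyde and 1 ug/ml Hoechst fixed the cells and stained nuclei 5 days after treatment. Lung cancer cell lines in 1536-well plates had been treated by pin tool the day after seeding with one drug alone or a fixed anchor-drug dose plus five library-drug doses (not always all listed) in √10 steps, and nuclei were counted on 4× images. Relative viability is the ratio of nuclei in treated wells to nuclei in vehicle wells, taken as the median of duplicate plates.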

[2] = compound: CNC(=O)c1cc(Oc2ccc(NC(=O)Nc3ccc(Cl)c(C(F)(F)F)c3)cc2)ccn1 [Sorafenib] + CC1(C)CCC(c2ccc(Cl)cc2)=C(CN2CCN(c3ccc(C(=O)NS(=O)(=O)c4ccc(N[C@H](CCN5CCOCC5)CSc5ccccc5)c(S(=O)(=O)C(F)(F)F)c4)cc3)CC2)C1 [Navitoclax] (partner 0.5 µM)
Procedure, shortened: as §1

[3] = compound: CNC(=O)c1cc(Oc2ccc(NC(=O)Nc3ccc(Cl)c(C(F)(F)F)c3)cc2)ccn1 [Sorafenib] + CS(=O)(=O)N1CCN(Cc2cc3nc(-c4cccc5[nH]ncc45)nc(N4CCOCC4)c3s2)CC1 [Pictilisib] (partner 1 µM)
Procedure, shortened: as §1

[4] = compound: CNC(=O)c1cc(Oc2ccc(NC(=O)Nc3ccc(Cl)c(C(F)(F)F)c3)cc2)ccn1 [Sorafenib] + C[C@@H](Oc1cc(-c2cnn(C3CCNCC3)c2)cnc1N)c1c(Cl)ccc(F)c1Cl [Crizotinib] (partner 1 µM)
Procedure, shortened: as §1

[5] = compound: CNC(=O)c1cc(Oc2ccc(NC(=O)Nc3ccc(Cl)c(C(F)(F)F)c3)cc2)ccn1 [Sorafenib] + Nc1ncn([C@H]2C[C@H](O)[C@@H](CO)O2)c(=O)n1 [Decitabine] (partner 2 µM)
Procedure, shortened: as §1

Row | Cell Line | relative viability ([1]; first compound 0.08 µM) | relative viability ([1]; first compound 0.253 µM) | relative viability ([1]; first compound 2.53 µM) | relative viability ([1]; first compound 8 µM) | relative viability ([2]; first compound 0.08 µM) | relative viability ([2]; first compound 2.53 µM) | relative viability ([2]; first compound 8 µM) | relative viability ([3]; first compound 0.08 µM) | relative viability ([3]; first compound 0.253 µM) | relative viability ([3]; first compound 2.53 µM) | relative viability ([3]; first compound 8 µM) | relative viability ([4]; first compound 0.08 µM) | relative viability ([4]; first compound 0.253 µM) | relative viability ([4]; first compound 2.53 µM) | relative viability ([4]; first compound 8 µM) | relative viability ([5]; first compound 0.08 µM) | relative viability ([5]; first compound 0.253 µM) | relative viability ([5]; first compound 2.53 µM) | relative viability ([5]; first compound 8 µM) | relative viability ([2]; first compound 0.253 µM)
1 | UMC-11 | 0.609 | 0.627 | 0.702 | 0.231 | 0.32 | 0.34 | 0.152 | 0.85 | 0.78 | 0.759 | 0.523 | 0.558 | 0.578 | 0.541 | 0.204 | 0.596 | 0.57 | 0.535 | 0.249 | –
2 | NCI-H1915 | 1.01 | 0.766 | 0.923 | 0.99 | 0.785 | 0.681 | 0.798 | 0.875 | 0.911 | 0.958 | 0.866 | 0.892 | 0.786 | 0.829 | 0.907 | 0.26 | 0.254 | 0.268 | 0.247 | 0.706
3 | PC-14 | 0.911 | 0.89 | 0.827 | 0.316 | 1.02 | 0.888 | 0.955 | 0.748 | 0.542 | 0.625 | 0.344 | 0.935 | 1 | 0.967 | 0.533 | 0.22 | 0.177 | 0.225 | 0.156 | 0.949
4 | EKVX | 1.19 | 0.879 | 0.962 | 0.994 | 1.13 | 0.884 | 0.963 | 0.529 | 0.463 | 0.434 | 0.393 | 0.96 | 0.846 | 0.917 | 0.877 | 0.339 | 0.362 | 0.378 | 0.305 | 0.882
5 | LXF-289 | 0.98 | 0.997 | 1.03 | 0.926 | 0.971 | 0.999 | 0.943 | 0.834 | 0.727 | 0.828 | 0.779 | 0.816 | 0.814 | 0.824 | 0.757 | 0.379 | 0.38 | – | 0.329 | 0.959
6 | HCC-827 | 1.06 | 1.04 | 0.929 | – | 1.04 | 0.984 | 0.905 | 1.19 | 0.897 | 0.861 | 0.727 | – | 0.918 | 0.94 | 0.853 | 0.316 | 0.3 | 0.323 | 0.331 | 1.04
7 | NCI-H1666 | – | 0.66 | 0.851 | – | 1.01 | 0.752 | 0.577 | 0.497 | 0.407 | 0.451 | 0.331 | 1.01 | 0.899 | – | 0.487 | 0.834 | 0.774 | 0.727 | 0.616 | 0.953
8 | NCI-H441 | 0.489 | 0.433 | 0.277 | 0.219 | 0.488 | 0.471 | 0.417 | 0.524 | 0.476 | 0.409 | 0.445 | 0.727 | 0.64 | 0.532 | 0.473 | 0.23 | 0.146 | 0.207 | 0.277 | 0.431
9 | HCC-15 | 0.996 | 0.83 | 0.912 | 0.807 | 0.748 | 0.804 | 0.522 | 0.729 | 0.683 | – | 0.602 | 0.836 | 0.774 | 0.813 | 0.566 | 0.679 | 0.631 | 0.723 | 0.321 | 0.713
10 | NCI-H520 | 0.828 | 0.665 | 0.599 | 0.232 | 1.21 | – | 0.358 | 0.337 | 0.322 | 0.307 | 0.188 | 0.912 | 0.695 | 0.67 | 0.581 | – | 0.421 | 0.446 | 0.299 | 1.08
11 | HCC-78 | 0.517 | 0.427 | – | 0.585 | 0.814 | 0.739 | 0.84 | 0.254 | 0.229 | 0.268 | 0.217 | 0.394 | 0.361 | 0.483 | 0.507 | 0.752 | 0.634 | 0.608 | 0.596 | 0.731
12 | H3255 | 0.841 | 0.706 | 1.05 | 0.726 | 0.652 | 0.616 | 0.502 | 0.525 | 0.434 | 0.521 | 0.305 | 1.06 | 0.809 | 0.799 | 0.62 | 0.656 | 0.523 | 0.593 | 0.366 | 0.46
13 | NCI-H460 | 1.01 | 1.02 | 0.972 | – | 1.2 | 1.12 | 0.231 | – | 0.442 | 0.51 | 0.3 | 1.02 | 0.777 | 0.918 | 0.502 | 0.472 | 0.447 | 0.457 | 0.357 | 1.02
14 | PC-3 [JPC-3] | 0.875 | 0.726 | 0.818 | 0.928 | 0.883 | 0.806 | 0.877 | 0.813 | 0.659 | 0.752 | 0.679 | 0.978 | 0.957 | 0.985 | – | 0.835 | 0.763 | 0.837 | 0.826 | 0.775
15 | NCI-H1792 | 1.02 | 0.957 | 0.958 | 0.92 | 0.671 | 0.585 | 0.544 | 0.34 | 0.23 | 0.278 | 0.39 | 1.05 | 0.973 | 1 | 0.87 | 0.507 | 0.492 | 0.489 | 0.456 | 0.51
16 | NCI-H2405 | 1.03 | 0.905 | 1 | 0.926 | 1.16 | 0.7 | 0.348 | 0.539 | 0.39 | 0.363 | 0.293 | 0.884 | 0.767 | – | 0.76 | 0.754 | 0.726 | 0.737 | 0.577 | 0.88
